This passage reports activity and Activity results from ChEMBL document CHEMBL2073789, “Reversal of P-glycoprotein mediated multidrug resistance by a newly synthesized 1,4-benzothiazipine derivative, JTV-519” (Cancer Lett, 2002).

Data set [1] has as its target Multidrug resistance-associated protein 1 (MRP1) (Homo sapiens, UniProt P33527). Kind of data set: TP_TRANSPORTER: inhibition of 125I-azidoAG-A photoaffinity labeling (125I-azidoAG-A: 5 uM, JTV-519: 500 uM) in membrane from KB/MRP cells. Also noted: scale not given: the % may be the effect or the level left. To be noted: probe 125I-azidoAG-A (5 uM), read-out: Activity. In kind it is functional, cell membranes, Membrane vesicle.

The target in data set [2] is ATP-dependent translocase ABCB1 (Homo sapiens, UniProt P08183). Kind of data set: TP_TRANSPORTER: inhibition of Adriamycin efflux (Adriamycin: 10 uM, JTV-519: 10 uM) in K562/MDR cells. In kind it is functional, cell-based.

The structures appear in SMILES notation.

ATP-dependent translocase ABCB1, sequence (P08183 whole entry): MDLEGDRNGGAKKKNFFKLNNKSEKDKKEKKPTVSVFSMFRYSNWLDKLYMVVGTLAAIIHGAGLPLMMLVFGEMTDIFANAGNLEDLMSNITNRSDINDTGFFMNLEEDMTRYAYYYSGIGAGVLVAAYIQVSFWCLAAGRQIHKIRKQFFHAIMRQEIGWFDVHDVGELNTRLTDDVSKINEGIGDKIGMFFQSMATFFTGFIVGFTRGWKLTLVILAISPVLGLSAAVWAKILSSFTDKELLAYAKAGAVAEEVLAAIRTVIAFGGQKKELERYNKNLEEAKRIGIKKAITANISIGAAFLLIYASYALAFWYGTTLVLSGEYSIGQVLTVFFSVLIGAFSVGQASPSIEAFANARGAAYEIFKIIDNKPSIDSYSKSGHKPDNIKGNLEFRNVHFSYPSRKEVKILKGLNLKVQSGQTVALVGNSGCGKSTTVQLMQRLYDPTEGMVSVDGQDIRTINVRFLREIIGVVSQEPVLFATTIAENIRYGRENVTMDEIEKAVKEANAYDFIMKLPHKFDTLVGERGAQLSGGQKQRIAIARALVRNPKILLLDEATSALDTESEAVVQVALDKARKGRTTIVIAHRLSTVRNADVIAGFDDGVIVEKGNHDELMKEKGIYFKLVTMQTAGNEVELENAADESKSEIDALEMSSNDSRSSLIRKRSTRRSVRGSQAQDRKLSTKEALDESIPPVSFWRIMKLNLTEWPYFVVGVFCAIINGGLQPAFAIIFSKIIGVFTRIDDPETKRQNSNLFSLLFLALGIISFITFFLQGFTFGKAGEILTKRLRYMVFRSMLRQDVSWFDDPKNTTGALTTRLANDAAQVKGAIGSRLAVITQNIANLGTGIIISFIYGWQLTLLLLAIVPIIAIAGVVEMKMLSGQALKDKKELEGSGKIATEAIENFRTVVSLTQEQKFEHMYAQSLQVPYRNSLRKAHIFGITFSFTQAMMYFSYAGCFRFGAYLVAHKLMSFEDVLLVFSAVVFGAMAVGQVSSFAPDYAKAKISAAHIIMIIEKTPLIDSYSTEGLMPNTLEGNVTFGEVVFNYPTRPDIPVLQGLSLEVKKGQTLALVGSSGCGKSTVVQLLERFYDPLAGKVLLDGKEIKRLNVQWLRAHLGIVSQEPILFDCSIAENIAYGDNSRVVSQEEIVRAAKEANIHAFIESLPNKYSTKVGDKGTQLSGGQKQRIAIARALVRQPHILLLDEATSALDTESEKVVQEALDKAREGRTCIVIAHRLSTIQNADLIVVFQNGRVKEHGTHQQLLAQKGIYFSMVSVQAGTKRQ
Multidrug resistance-associated protein 1 (MRP1), sequence (P33527 whole entry): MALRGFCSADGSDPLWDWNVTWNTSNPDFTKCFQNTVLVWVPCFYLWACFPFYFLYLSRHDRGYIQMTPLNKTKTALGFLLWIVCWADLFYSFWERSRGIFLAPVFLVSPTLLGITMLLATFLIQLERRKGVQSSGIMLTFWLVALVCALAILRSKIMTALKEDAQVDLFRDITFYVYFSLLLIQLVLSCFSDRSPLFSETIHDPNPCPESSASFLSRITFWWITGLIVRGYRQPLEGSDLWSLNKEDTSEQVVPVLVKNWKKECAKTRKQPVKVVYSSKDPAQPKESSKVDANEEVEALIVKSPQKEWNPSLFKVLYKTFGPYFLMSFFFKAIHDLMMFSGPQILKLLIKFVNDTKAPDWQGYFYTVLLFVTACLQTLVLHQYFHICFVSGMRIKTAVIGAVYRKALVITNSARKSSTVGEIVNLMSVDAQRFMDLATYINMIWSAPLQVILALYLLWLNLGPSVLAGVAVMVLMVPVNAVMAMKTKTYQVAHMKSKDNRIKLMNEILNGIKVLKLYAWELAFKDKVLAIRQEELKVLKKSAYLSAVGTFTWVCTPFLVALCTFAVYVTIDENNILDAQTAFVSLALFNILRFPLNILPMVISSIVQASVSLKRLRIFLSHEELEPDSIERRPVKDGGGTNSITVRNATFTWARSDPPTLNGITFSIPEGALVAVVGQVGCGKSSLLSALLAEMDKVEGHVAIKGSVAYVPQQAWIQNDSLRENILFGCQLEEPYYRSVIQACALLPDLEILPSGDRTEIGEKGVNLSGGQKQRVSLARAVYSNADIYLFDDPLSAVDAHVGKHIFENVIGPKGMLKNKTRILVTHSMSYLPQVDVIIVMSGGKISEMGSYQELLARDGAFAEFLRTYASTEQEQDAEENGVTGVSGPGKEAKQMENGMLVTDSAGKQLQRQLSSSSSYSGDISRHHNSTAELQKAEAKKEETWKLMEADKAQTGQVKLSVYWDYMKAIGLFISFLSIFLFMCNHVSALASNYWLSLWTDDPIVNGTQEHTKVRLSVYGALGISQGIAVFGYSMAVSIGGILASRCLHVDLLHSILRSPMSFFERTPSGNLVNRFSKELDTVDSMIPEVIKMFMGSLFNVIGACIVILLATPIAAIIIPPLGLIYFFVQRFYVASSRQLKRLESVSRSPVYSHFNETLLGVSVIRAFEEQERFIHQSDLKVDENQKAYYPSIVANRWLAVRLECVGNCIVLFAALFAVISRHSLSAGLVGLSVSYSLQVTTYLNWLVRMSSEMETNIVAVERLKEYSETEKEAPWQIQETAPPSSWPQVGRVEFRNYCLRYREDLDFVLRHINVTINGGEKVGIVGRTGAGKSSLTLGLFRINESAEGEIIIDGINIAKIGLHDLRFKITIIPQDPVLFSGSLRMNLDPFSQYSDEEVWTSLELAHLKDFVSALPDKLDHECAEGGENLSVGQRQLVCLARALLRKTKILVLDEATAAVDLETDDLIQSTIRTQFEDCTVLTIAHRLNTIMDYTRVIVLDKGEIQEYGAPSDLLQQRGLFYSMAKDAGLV

As to `COc1ccc2c(c1)CN(C(=O)CCN1CCC(Cc3ccccc3)CC1)CCS2`, the activity at 500 µM in data set [1] stood at 58%. Further, in data set [2], the Activity entry is “inhibitor [+]”.
